{"source": "paper PMC11787452", "about": "“Substrate and inhibitor specificity of Plasmodium nucleoside transporters ENT1 orthologs” (The Journal of Biological Chemistry, 2024)", "key": {"PfENT1 [1]": {"target": "T1, PfENT1 (Plasmodium falciparum, UniProt Q8IDM6)", "T1 construct": "10xHis (N); made in house; host or cells: Sf9 insect cells (baculovirus)", "experiment": "ITC binding to PfENT1", "settings": "for Kd: 25 °C, 25 mM MES pH 6.0, 150 mM NaCl, 0.05% DDM", "procedure": "(§1) All the constructs were subcloned and inserted into a modified pFastBac with an N-terminal 10 × His tag. The baculovirus was generated in DH10Bac for recombinant protein expression. After 72 h of infection, Sf9 insect cells were harvested. For structural determination of the PfENT1 protein, Sf9 cells were solubilized in buffer containing 25 mM MES (pH 6.0), 150 mM NaCl, 2% (w/v) n-dodecyl-β-D-maltopyranoside (DDM), and protease inhibitor cocktail (0.8 μM aprotinin, 2 μM pepstatin, and 5 μg/ml leupeptin) at 4 °C for 2 h. After centrifugation at 18,000 rpm for 45 min at 4 °C, the detergent-soluble supernatant was collected via centrifugation at 4 °C for 60 min and incubated with Ni-NTA resin (QIAGEN) at 4 °C for 20 min. The resin was further washed with 25 mM MES pH 6.0, 150 mM NaCl, 10 mM imidazole, and 0.05% (w/v) DDM and eluted with buffer containing 25 mM MES pH 6.0, 150 mM NaCl, 300 mM imidazole, and 0.05% (w/v) DDM. The protein was further purified via size-exclusion chromatography (Superdex 200 Increase 10/300; GE Healthcare) in buffer containing 25 mM MES (pH 6.0), 150 mM NaCl, and 0.05% (w/v) DDM. The peak fractions were pooled and concentrated to 10∼50 μM for the nucleoside-binding assay. The protein purification of the bacterial nucleoside transporter NupG was performed as described in previous studies ([35]).\n(§2) […] binding to ENTs was measured at 25 °C via a MicroCal PEAQ-ITC. The purified ENT protein was concentrated to 25 to 50 μM for ITC experiments. The nucleoside was diluted to 5 mM via the same buffer employed for protein purification, which consisted of 25 mM MES (pH 6.0), 150 mM NaCl, and 0.05% DDM. The inhibitor was diluted to 250 μM via the same buffer employed for protein purification, which consisted of 25 mM MES (pH 6.0), 150 mM NaCl, and 0.05% DDM. All the titrations were repeated three times."}, "PvENT1": {"target": "T2, PvENT1 (Plasmodium vivax, UniProt A5K8B0)", "T2 construct": "10xHis (N); made in house; host or cells: Sf9 insect cells (baculovirus)", "T2 sequence (A5K8B0 1-416)": "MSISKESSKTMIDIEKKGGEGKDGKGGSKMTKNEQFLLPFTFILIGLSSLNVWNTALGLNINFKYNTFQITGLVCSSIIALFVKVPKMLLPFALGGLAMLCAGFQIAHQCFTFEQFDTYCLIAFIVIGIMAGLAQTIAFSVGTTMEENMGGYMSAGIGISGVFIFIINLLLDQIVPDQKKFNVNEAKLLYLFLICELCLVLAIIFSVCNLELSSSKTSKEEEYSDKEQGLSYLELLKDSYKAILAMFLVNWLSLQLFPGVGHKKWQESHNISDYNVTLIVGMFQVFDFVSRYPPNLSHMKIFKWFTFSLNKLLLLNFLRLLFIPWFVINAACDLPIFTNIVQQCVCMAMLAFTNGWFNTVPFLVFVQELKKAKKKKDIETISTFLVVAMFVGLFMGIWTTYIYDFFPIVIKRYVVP", "experiment": "ITC binding to PvENT1", "settings": "for Kd: 25 °C, 25 mM MES pH 6.0, 150 mM NaCl, 0.05% DDM, read-out: Kd (binding affinity for PvENT1)", "procedure": "as §1, §2"}, "PbENT1": {"target": "T3, PbENT1 (Plasmodium berghei, UniProt A0A509AYF4)", "T3 construct": "10xHis (N); made in house; host or cells: Sf9 insect cells (baculovirus)", "T3 sequence (A0A509AYF4 1-412)": "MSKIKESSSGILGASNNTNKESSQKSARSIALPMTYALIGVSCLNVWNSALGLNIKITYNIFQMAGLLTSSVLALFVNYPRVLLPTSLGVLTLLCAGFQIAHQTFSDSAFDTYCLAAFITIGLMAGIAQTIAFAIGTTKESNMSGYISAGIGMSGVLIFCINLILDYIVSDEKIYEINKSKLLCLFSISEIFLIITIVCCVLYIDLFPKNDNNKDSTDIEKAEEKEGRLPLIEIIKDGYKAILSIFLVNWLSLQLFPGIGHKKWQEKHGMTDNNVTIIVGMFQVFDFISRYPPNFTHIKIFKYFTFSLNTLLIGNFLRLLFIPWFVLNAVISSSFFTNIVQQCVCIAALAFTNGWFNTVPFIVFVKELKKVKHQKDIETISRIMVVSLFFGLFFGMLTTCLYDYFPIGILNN", "experiment": "ITC binding to PbENT1", "settings": "for Kd: 25 °C, 25 mM MES pH 6.0, 150 mM NaCl, 0.05% DDM, read-out: Kd (binding affinity for PbENT1)", "procedure": "as §1, §2"}, "PfENT1M389L": {"target": "T4, PfENT1M389L (Plasmodium falciparum, UniProt Q8IDM6, M389L)", "T4 construct": "10xHis (N); made in house; host or cells: Sf9 insect cells (baculovirus)", "T4 sequence (Q8IDM6 whole entry M389L)": "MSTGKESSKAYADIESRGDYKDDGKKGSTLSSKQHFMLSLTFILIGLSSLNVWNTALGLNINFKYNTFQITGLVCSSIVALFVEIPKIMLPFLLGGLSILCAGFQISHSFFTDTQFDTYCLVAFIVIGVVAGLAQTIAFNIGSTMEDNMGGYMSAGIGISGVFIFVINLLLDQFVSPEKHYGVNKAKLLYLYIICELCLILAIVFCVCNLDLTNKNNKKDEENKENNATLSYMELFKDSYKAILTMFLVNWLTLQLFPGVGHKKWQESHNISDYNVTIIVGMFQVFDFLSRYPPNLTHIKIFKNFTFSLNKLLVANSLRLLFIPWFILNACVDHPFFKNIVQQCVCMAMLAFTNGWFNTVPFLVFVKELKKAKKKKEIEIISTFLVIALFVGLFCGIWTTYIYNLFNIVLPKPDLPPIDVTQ", "experiment": "ITC binding to PfENT1M389L", "settings": "for Kd: Kd (binding to PfENT1M389L), 25 °C, pH 6.0", "procedure": "as §1, §2"}, "[2]": {"target": "T5, bacterial nucleoside transporter NupG (Escherichia coli, UniProt P0AFF4)", "T5 construct": "made in house", "T5 sequence (P0AFF4 1-418)": "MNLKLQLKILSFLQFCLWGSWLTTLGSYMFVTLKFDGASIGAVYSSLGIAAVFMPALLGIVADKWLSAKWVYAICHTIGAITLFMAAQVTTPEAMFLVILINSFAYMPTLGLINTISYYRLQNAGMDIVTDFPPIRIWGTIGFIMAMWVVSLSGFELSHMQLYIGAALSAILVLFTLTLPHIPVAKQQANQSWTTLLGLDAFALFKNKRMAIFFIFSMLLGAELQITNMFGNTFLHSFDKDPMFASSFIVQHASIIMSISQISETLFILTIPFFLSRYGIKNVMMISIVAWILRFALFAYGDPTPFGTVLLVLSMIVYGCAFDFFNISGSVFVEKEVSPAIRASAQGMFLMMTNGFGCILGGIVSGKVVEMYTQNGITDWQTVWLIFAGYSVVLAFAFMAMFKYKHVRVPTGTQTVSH", "experiment": "ITC binding to NupG", "procedure": "as §1, with “The protein purification of the bacterial nucleoside transporter NupG was performed as described in previous studies ([35]).” left out\n(§3) […] binding to ENTs was measured at 25 °C via a MicroCal PEAQ-ITC. […]"}, "HepG2 cells": {"system": "HepG2 cells", "experiment": "Cytotoxicity assay (Cell Counting Kit-8) on HepG2 cells", "type": "cell-based", "settings": "1.5 to 400 μM, 48 h, compared with GSK4, GSK4-1, GSK4-2", "procedure": "(§4) HepG2 and 293T cells were obtained from ATCC and cultured in Dulbecco’s modified Eagle’s medium supplemented with 10% fetal bovine serum and 1% penicillin-streptomycin (Gibco). Cells were maintained at 37 °C in a humidified atmosphere containing 5% CO2. Cells were seeded at a density of 5 × 10^3 cells per well in 96-well plates and allowed to adhere for 24 h before treatment. Cells were treated with the test compounds at concentrations ranging from 1.5 to 400 μM for 48 h. Control wells were treated with an equivalent concentration of DMSO (vehicle control). Cell viability was assessed using the Cell Counting Kit-8. After 48 h of treatment, 10 μl of Cell Counting Kit-8 solution was added to each well, and the plates were incubated for 2 h at 37 °C. The absorbance was measured at 450 nm using a microplate reader. Cell viability was expressed as a percentage of the control group, and IC50 values were calculated using nonlinear regression analysis (GraphPad Prism 8.0). Data are presented as mean ± SD from three independent experiments, each performed in triplicate."}, "293T cells": {"system": "293T cells", "experiment": "Cytotoxicity assay (Cell Counting Kit-8) on 293T cells", "type": "cell-based", "settings": "1.5 to 400 μM, 48 h, compared with GSK4, GSK4-1, GSK4-2", "procedure": "as §4"}, "PbENT1L388M": {"target": "T6, PbENT1L388M (Plasmodium berghei, UniProt A0A509AYF4, L388M)", "T6 construct": "10xHis (N); made in house; host or cells: Sf9 insect cells (baculovirus)", "T6 sequence (A0A509AYF4 whole entry L388M)": "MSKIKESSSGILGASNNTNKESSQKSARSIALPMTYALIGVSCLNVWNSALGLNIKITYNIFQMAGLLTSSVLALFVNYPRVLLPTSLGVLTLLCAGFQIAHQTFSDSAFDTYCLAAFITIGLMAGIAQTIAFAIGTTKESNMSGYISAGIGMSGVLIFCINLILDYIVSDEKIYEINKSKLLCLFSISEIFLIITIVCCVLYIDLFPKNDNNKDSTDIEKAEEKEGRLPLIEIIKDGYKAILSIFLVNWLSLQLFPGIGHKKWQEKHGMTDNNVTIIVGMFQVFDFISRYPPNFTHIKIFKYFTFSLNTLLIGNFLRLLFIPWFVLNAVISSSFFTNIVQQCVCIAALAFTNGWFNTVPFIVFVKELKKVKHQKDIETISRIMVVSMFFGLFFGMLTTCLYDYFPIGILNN", "experiment": "ITC binding to PbENT1L388M", "procedure": "as §1, with “The protein purification of the bacterial nucleoside transporter NupG was performed as described in previous studies ([35]).” left out\nas §3"}, "PfENT1S49C": {"target": "T7, PfENT1S49C (Plasmodium falciparum, UniProt Q8IDM6, S49C)", "T7 construct": "10xHis (N); made in house; host or cells: Sf9 insect cells (baculovirus)", "T7 sequence (Q8IDM6 whole entry S49C)": "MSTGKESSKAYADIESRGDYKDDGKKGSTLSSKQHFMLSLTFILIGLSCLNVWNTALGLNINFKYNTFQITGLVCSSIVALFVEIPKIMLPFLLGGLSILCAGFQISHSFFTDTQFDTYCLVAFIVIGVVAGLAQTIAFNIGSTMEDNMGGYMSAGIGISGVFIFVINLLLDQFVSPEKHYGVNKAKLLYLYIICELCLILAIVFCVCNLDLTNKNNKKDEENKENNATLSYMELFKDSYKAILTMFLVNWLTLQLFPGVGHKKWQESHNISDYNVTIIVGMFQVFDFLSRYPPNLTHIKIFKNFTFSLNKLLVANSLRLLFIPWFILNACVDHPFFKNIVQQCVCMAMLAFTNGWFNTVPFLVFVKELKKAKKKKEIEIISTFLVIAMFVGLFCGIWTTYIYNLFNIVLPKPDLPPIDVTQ", "experiment": "ITC binding to PfENT1S49C", "procedure": "as §1, with “The protein purification of the bacterial nucleoside transporter NupG was performed as described in previous studies ([35]).” left out\nas §3"}, "PbENT1C43S": {"target": "T8, PbENT1C43S (Plasmodium berghei, UniProt A0A509AYF4, C43S)", "T8 construct": "10xHis (N); made in house; host or cells: Sf9 insect cells (baculovirus)", "T8 sequence (A0A509AYF4 whole entry C43S)": "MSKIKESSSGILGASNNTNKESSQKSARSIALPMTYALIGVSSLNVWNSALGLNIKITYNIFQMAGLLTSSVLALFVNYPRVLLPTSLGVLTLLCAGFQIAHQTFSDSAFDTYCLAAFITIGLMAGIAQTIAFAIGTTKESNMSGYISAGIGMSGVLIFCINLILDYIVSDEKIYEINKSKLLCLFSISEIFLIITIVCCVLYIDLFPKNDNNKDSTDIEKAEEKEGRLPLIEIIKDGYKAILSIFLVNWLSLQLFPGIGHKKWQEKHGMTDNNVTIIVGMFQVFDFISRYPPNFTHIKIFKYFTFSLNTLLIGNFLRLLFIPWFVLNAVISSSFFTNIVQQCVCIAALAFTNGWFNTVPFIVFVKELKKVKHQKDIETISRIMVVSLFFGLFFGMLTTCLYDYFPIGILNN", "experiment": "ITC binding to PbENT1C43S", "procedure": "as §1, §2"}, "PfENT1 [3]": {"target": "T1, PfENT1", "parameters": "method as in PMID 36977719", "settings": "competition assay; cited from earlier work"}}, "note": "Where “and” joins values, the source holds several entries; their conditions need not be identical. Equal entries are not always repeated. Where two headings read alike, the source gives them in different places."}
{"smiles": "Cc1oc(-c2ccc(Cl)cc2)nc1C(=O)NCCN1CCCCCC1=O", "note": "[GSK4-1]", "values": [{"measurement": "decrease in binding affinity for PfENT1 (versus GSK4)", "setting": "PfENT1 [1]", "result": 3.5, "unit": "fold"}]}
{"smiles": "Cc1oc(-c2ccccc2Cl)nc1C(=O)NCCN1CCCCCC1=O", "note": "[GSK4-2]", "values": [{"measurement": "decrease in binding affinity for PfENT1 (versus GSK4)", "setting": "PfENT1 [1]", "result": 1.6, "unit": "fold"}]}
{"smiles": "O=C(NCCN1CCCCCC1=O)c1nc(-c2ccccc2)oc1C1CC1", "note": "[GSK4-3]", "values": [{"measurement": "Kd", "setting": "PfENT1 [1]; read-out: Kd (binding affinity for PfENT1)", "result": "21.9 nM and 13.4 nM and 16.4 nM"}, {"measurement": "binding affinity for PvENT1 (in words)", "setting": "PvENT1", "result": "comparable binding"}, {"measurement": "Kd", "setting": "PvENT1", "result": "57.2 nM and 37.6 nM and 30.8 nM"}, {"measurement": "binding affinity for PbENT1 (in words)", "setting": "PbENT1", "result": "negligible binding"}, {"measurement": "increase in binding affinity for PfENT1M389L compared with parent compound GSK4", "setting": "PfENT1M389L", "result": 6, "unit": "fold"}, {"measurement": "Kd", "setting": "PfENT1M389L", "result": 44.4, "unit": "nM"}, {"measurement": "binding to NupG (in words)", "setting": "[2]", "result": "cannot bind"}, {"measurement": "cytotoxicity (in words)", "setting": "HepG2 cells", "result": "lower cytotoxicity"}, {"measurement": "cytotoxicity (in words)", "setting": "293T cells", "result": "lower cytotoxicity"}]}
{"smiles": "Cc1oc(-c2ccccc2)nc1C(=O)NCCN1CCCCCC1=O", "note": "[GSK4]", "values": [{"measurement": "Kd", "setting": "PfENT1 [1]; Kd (binding affinity for PfENT1)", "result": "38.1 nM and 51.9 nM and 48.1 nM"}, {"measurement": "Kd", "setting": "PvENT1", "result": "54.3 nM and 37.2 nM and ~47.2 nM and 47.2 nM"}, {"measurement": "Kd", "setting": "PbENT1", "result": "15400 nM and 4920 nM and 12600 nM"}, {"measurement": "binding affinity of PfENT1M389L relative to PfENT1WT", "setting": "PfENT1M389L", "result": "five times weaker"}, {"measurement": "Kd", "setting": "PfENT1M389L", "result": "234 nM and 317 nM and 276 nM"}, {"measurement": "binding affinity of PbENT1L388M relative to PbENT1WT", "setting": "PbENT1L388M", "result": "five times greater"}, {"measurement": "Kd", "setting": "PbENT1L388M; Kd (binding to PbENT1L388M), 25 °C, pH 6.0", "result": "2590 nM and 2090 nM and 2770 nM"}]}
{"smiles": "Nc1ncnc2c1ncn2[C@@H]1O[C@H](CO)[C@@H](O)[C@H]1O", "note": "[adenosine]", "values": [{"measurement": "Kd", "setting": "PbENT1", "result": "38100 nM and 36600 nM and 40500 nM"}, {"measurement": "thermodynamic pattern of binding to PfENT1S49C", "setting": "PfENT1S49C", "result": "enthalpy-driven"}, {"measurement": "binding to PbENT1C43S (in words)", "setting": "PbENT1C43S", "result": "did not show detectable adenosine binding"}, {"measurement": "inhibition of the inosine transport activity of PfENT1", "setting": "PfENT1 [3]", "result": "effectively inhibited"}]}
{"smiles": "Nc1ccn([C@@H]2O[C@H](CO)[C@@H](O)[C@H]2O)c(=O)n1", "note": "[cytidine]", "values": [{"measurement": "binding affinity for PbENT1 (in words)", "setting": "PbENT1", "result": "No binding affinity was detected"}]}
